Laboratory results reported in US8530457B2, “Method for the treatment of lymphangioleiomyomatosis (LAM)” (Fox Chase Cancer Center, priority 2008, dated 2013).
Entries after “also recorded” stand apart in the source; their conditions may differ.

Tests used:
ELT3 cells [1] = assay: ELT3 cell proliferation in response to E2, 3H-thymidine incorporation; format: cell-based, rat; settings: day 5, E2 treatment vs control
Protocol: (§1) ELT-3 cells (Eker rat uterine leiomyoma-derived smooth muscle cells) were cultured in IIA complete medium (DMEM/F12 basal media including 15% FBS, 0.2 μM hydrocortisone, 10 μU/mL vasopressin, 1×FeSO4, 10 ng/mL EGF, 1×ITS, 0.01 nM triiolythryonine, 0.12% sodium bicarbonate, 1× cholesterol and 1× penicillin/streptomycin) supplemented with 15% FBS. Prior to the in vitro experiments, cells were maintained in media supplemented with 10%-charcoal-stripped FBS for three days and then serum starved for 24 hours in serum-free and phenol red-free medium. E2 (10 nM, Sigma, St. Louis, Mo.) or PD98059 (50 μM, Cell Signaling Technology, Danvers, Mass.) was added to the cells as indicated.
The surviving cells in suspension were plated in triplicate in 24-well plates and allowed to grow adherently for 24 hours. ^3H-thymidine (1 μCi) was added to the media and the cells were incubated at 37° C. for 6 hours, washed with PBS, and lysed in 0.5 mL of 0.5 N NaOH plus 0.5% SDS. ^3H-thymidine incorporation was measured by scintillation counting. […]

[2] = tested on: tuberin-deficient ELT3 cells; assay: Subcutaneous ELT3 xenograft in CB17-scid mice: primary tumors and pulmonary metastases; format: in vivo
Protocol: (§2) All animal work was performed in accordance with a protocol approved by the FCCC Institutional Animal Care and Use Committee. Male CB-17 scid mice, six weeks of age, were purchased from Fox Chase Cancer Center. Female ovariectomized CB17-scid mice, six to eight weeks of age, were purchased from Taconic (Hudson, N.Y.). One week prior to cell injection, 17-beta estradiol or control-placebo pellets (2.5 mg, 90-day release) (Innovative Research America, Sarasota, Fla.) were implanted. For xenograft tumor establishment, subconfluent ELT3 cells were harvested, washed in PBS, and resuspended in 0.2 ml of serum-free medium. Two millions ELT3 cells were injected into both flanks of the mouse subcutaneously. For metastatic and circulating tumor cells assays, 2×10^5 ELT3 or ELT3-Luc cells were resuspended in 0.1 ml PBS and injected into the lateral tail vein of mice. Lung metastases were scored from 3-5 five-micron H&E stained sections of each lobe at 40× magnification by observers blinded to the experimental conditions.
CI-1040 (PD184352) was obtained from Pfizer (Ann Arbor, Mich.) and was prepared in a vehicle of 10% Cremophore EL (Sigma), 10% ethanol and 80% water. RAD001 was obtained from Novartis Pharma AG (Basel, Switzerland) and was diluted in double-distilled water. Drug were administered one day post cell inoculation at the following doses: RAD001 (4 mg/kg/day, gavage); CI-1040, (150 mg/kg/day gavage, twice a day)
Subcutaneous tumors were removed from animals upon sacrifice. Tumor weights were recorded, and tumor size was measured in two dimensions with calipers.
ELT3 cells were inoculated subcutaneously into the flanks of ovariectomized CB17-SCID mice, which were supplemented 1 week before with either placebo or E2 pellets (2.5 mg, 90-day release). Tumors arose in 100% of both estrogen and placebo-treated mice. […] The proliferative potential of ELT3 cells in vivo was examined using Ki-67 immunoreactivity.

ELT3 cells [3] = assay: Circulating and lung tumor cell DNA by rat-specific real-time PCR; format: in vivo, mice
Protocol: as §2, with “For metastatic and circulating tumor cells assays, 2×10^5 ELT3 or ELT3-Luc cells were resuspended in 0.1 ml PBS and injected into the lateral tail vein of mice.” left out
Mouse blood (0.5 mL) was collected at indicated times by intraocular bleed, and red blood cells were lysed before DNA extraction. At death, the lungs were dissected and stored at −80° C. for DNA extraction. Rat and mouse DNAs were quantified by using TaqMan-chemistry based real-time PCR assays. […] The primers amplify a LINE repeat element (AC087102). The assay for mouse is for the gene Anf. The sequences (all 5′ to 3′) for the primers and probes are:
PCR master mix from Eurogentec was used for PCR. Primers and probe concentrations were 500 and 100 nM, respectively. Cycling conditions were 95° C., 15 minutes followed by 40 (2-steps) cycles (95° C., 15 sec; 60° C., 60 sec). Reactions were run using an ABI 7900 HT instrument. Each sample was analyzed using two different amounts of input DNA. […] Bioluminescent Reporter Imaging

ELT3-luciferase cells = assay: Lung colonization of i.v. injected ELT3-luciferase cells, bioluminescent imaging; format: in vivo, mice
Protocol: as §2, with “For metastatic and circulating tumor cells assays, 2×10^5 ELT3 or ELT3-Luc cells were resuspended in 0.1 ml PBS and injected into the lateral tail vein of mice.” left out
One million ELT3 cells were transfected with 3 μg of pCMV-Luc (Invitrogen, Carlsbad, Calif.) using Nucleofection reagent (Amaxa, Gaithersburg, Md.). Cells were selected in G418 for 2 weeks, and G418 resistant clones were isolated and examined for luciferase activity.
Ten minutes prior to imaging, animals were injected with luciferin (Xenogen, Alameda, Calif.) (120 mg/kg, i.p.). Bioluminescent signals were recorded at indicated times post cell injection using Xenogen IVIS System (Xenogen). Total photon flux at the chest regions and from the dissected lungs was analyzed.

p42/44 MAPK [4] = assay: Immunoblot of phosphorylated p42/44 MAPK in ELT3 cells; format: cell-based, rat
Protocol: Prior to the in vitro experiments, cells were maintained in media supplemented with 10%-charcoal-stripped FBS for three days and then serum starved for 24 hours in serum-free and phenol red-free medium. E2 (10 nM, Sigma, St. Louis, Mo.) or PD98059 (50 μM, Cell Signaling Technology, Danvers, Mass.) was added to the cells as indicated.
(§3) Cells were rinsed once in ice-cold PBS and lysed in PTY buffer (50 mM Hepes, pH 7.5, 50 mM NaCl, 5 mM EDTA, 50 mM NaF, 10 mM Na4P2O7, and 1% Triton 100) supplemented with phosphatase inhibitors. Lysates were resolved by SDS-PAGE electrophoresis and transferred onto Immobilon P membranes (Millipore). Cytoplasmic and nuclear fractions were separated using CellLytic Nuclear Extraction Kit (Sigma) before electrophoresis. […] Western blots were developed using horseradish peroxidase-conjugated secondary antibodies and ECL chemiluminescence (Amersham Biosciences).

C-Raf = assay: Immunoblot of phosphorylated C-Raf/Raf-1 in ELT3 cells; format: cell-based, rat; settings: E2 stimulation
Protocol: as §1
(§4) Cells were rinsed once in ice-cold PBS and lysed in PTY buffer (50 mM Hepes, pH 7.5, 50 mM NaCl, 5 mM EDTA, 50 mM NaF, 10 mM Na4P2O7, and 1% Triton 100) supplemented with phosphatase inhibitors. Lysates were resolved by SDS-PAGE electrophoresis and transferred onto Immobilon P membranes (Millipore). Cytoplasmic and nuclear fractions were separated using CellLytic Nuclear Extraction Kit (Sigma) before electrophoresis. […]

ribosomal protein S6 = assay: Immunoblot of phosphorylated ribosomal protein S6 in ELT3 cells; format: cell-based, rat; settings: E2 stimulation
Protocol: as §1, §4

p42/44 MAPK [5] = assay: Phospho-p42/44 MAPK immunostaining of primary xenograft tumors; format: in vivo, mice; settings: placebo 28%
Protocol: Sections were deparaffinized, incubated overnight with primary antibodies at 4° C. in a humidified chamber and then rinsed and incubated with biotinylated secondary antibodies for 30 minutes at room temperature. Slides were developed using the Broad Spectrum AEC Histostain-Plus (Invitrogen) or Histostain-Plus kit (Invitrogen), and they were counterstained with Gill's hematoxylin.
as §2

ELT3 cells [6] = assay: Anoikis assay of ELT3 cells on PolyHEMA (caspase-3, DNA fragmentation, Bim, regrowth); format: cell-based, rat
Protocol: as §3
ELT3 cells were cultured with or without 10 nM E2 in serum-free and phenol red-free medium supplemented with 10% charcoal-stripped FBS for 24 hours. […] Cell death as a function of DNA fragmentation was detected using Cell Death Detection ELISA kit (Roche Diagnostics).
The surviving cells in suspension were plated in triplicate in 24-well plates and allowed to grow adherently for 24 hours. ^3H-thymidine (1 μCi) was added to the media and the cells were incubated at 37° C. for 6 hours, washed with PBS, and lysed in 0.5 mL of 0.5 N NaOH plus 0.5% SDS. ^3H-thymidine incorporation was measured by scintillation counting.

[7] = female mice, subset n=4 with primary tumors of similar size
[8] = RAD001 4 mg/kg/day by gavage, 5 days per week, in the presence of estrogen or placebo

17β-estriadiol [E2]
increase in 3H-thymidine incorporation (ELT3 cells [1]): 2.8 fold | average number of pulmonary metastases, size-matched subset [2, 7]: 6 metastases/mouse | mice that developed pulmonary metastases, size-matched subset [2, 7]: Three | primary tumor size, size-matched subset [2, 7]: 198±20 mm^2 | tumor size relative to placebo-treated animals ([2]; male mice, 8 weeks post-cell inoculation): 2.9 fold | average number of pulmonary metastases ([2]; male mice, 8 weeks post-inoculation): 14 metastases/mouse | mice with pulmonary metastases ([2]; male mice, 8 weeks post-inoculation, 10 of 10): 100% | mice in which tumors arose ([2]; ovariectomized female CB17-SCID mice, E2 pellets 2.5 mg 90-day release): 100% | average number of pulmonary metastases ([2]; ovariectomized female mice): 15 metastases/mouse | mice with pulmonary metastases ([2]; ovariectomized female mice, 5 of 9): 56% | mean tumor area ([2]; ovariectomized female mice, post-inoculation week 8): 287±43 mm^2 | number of Ki-67 positive cells in tumors, higher than placebo ([2]; xenograft tumors, female mice, vs placebo-treated tumors): 17% | increase in circulating cells (ELT3 cells [3]; 6 h after i.v. injection of 2×10^5 ELT3 cells, vs placebo): 2.5 fold | increase in lung seeding of ELT3 cells (ELT3 cells [3]; lungs 24 h after i.v. injection, vs placebo): 2 fold | amount of circulating tumor cell DNA vs placebo (ELT3 cells [3]; xenograft mice, 7 weeks post-cell inoculation, tumors of similar size): striking increase | bioluminescence in chest regions, higher than placebo (ELT3-luciferase cells; 3 h post-cell injection): 2 fold | bioluminescence in chest regions, higher than placebo (ELT3-luciferase cells; 24 h post-cell injection): 5 fold | time to induced phosphorylation of p42/44 MAPK (p42/44 MAPK [4]; 10 nM E2): ≤ 15 min | time to nuclear translocation of phospho-MAPK (p42/44 MAPK [4]; nuclear and cytoplasmic fractions): ≤ 5 min | time to increased phosphorylation of C-Raf at Ser-338 (C-Raf): ≤ 2 min | mTOR activation as measured by ribosomal protein S6 phosphorylation (ribosomal protein S6): does not affect | percentage of cells with primarily nuclear phospho-MAPK (p42/44 MAPK [5]): 65% | DNA fragmentation (ELT3 cells [6]; 10 nM E2, PolyHEMA, at 1 and 24 h, ELISA): significantly reduced | caspase-3 cleavage (ELT3 cells [6]; 10 nM E2, PolyHEMA, at 6, 16 and 24 h): reduced | 3H-thymidine incorporation after replating (ELT3 cells [6]; 24 h on PolyHEMA, 24 h after replating on adherent plates): significant increase | accumulation of Bim (ELT3 cells [6]; after 1 h in detachment conditions): decreased | phosphorylation of S6K and S6 (ELT3 cells [6]; detachment conditions, E2 stimulation): did not change

O=C(NOCC1CC1)c1ccc(F)c(F)c1Nc1ccc(I)cc1Cl [CI-1040, 2-(2-chloro-4-iodo-phenylamino)-N-cyclopropylmethoxy-3,4-difluoro-benzamide]
tumor formation ([2]; CI-1040 150 mg/kg/day by gavage, twice a day, not statistically significant): delayed | reduction of the size of primary tumors ([2]; E2 animals, CI-1040 150 mg/kg/day by gavage, not statistically significant): 25% | lung metastases ([2]; mice treated with E2 plus CI-1040 150 mg/kg/day by gavage, 150 mg/kg/day): no lung metastases were detected; also recorded: completely blocked | reduction of levels of circulating ELT3 cells in the blood (ELT3 cells [3]; E2-treated xenograft animals, CI-1040 150 mg/kg/day by gavage): 84% | decrease of bioluminescence in chest regions, E2 plus CI-1040 vs E2 (ELT3-luciferase cells; 5 h post-cell injection): 55% | reduction of bioluminescent signals in ex vivo lungs, E2 plus CI-1040 vs E2 (ELT3-luciferase cells; 60 h post-cell injection): 96%

COc1cccc(-c2cc(=O)c3ccccc3o2)c1N [PD98059]
E2-induced phosphorylation of p42/44 MAPK (p42/44 MAPK [4]; pretreatment with PD98059 (50 μM)): blocked | phosphorylation of S6K (ELT3 cells [6]; 1 h after detachment): decreased | E2-enhanced survival (3H-thymidine incorporation after replating) (ELT3 cells [6]; 24 h on PolyHEMA then replated, PD98059 treatment): blocked | estrogen's inhibition of Bim accumulation and caspase-3 cleavage (ELT3 cells [6]; preincubation, after 4 h in detachment conditions): partially blocked

CO[C@H]1C[C@@H]2CC[C@@H](C)[C@@](O)(O2)C(=O)C(=O)N2CCCC[C@H]2C(=O)O[C@H]([C@H](C)C[C@@H]2CC[C@@H](OCCO)[C@H](OC)C2)CC(=O)[C@H](C)/C=C(\C)[C@@H](O)[C@@H](OC)C(=O)[C@H](C)C[C@H](C)/C=C/C=C/C=C/1C [RAD001]
lung metastasis [2, 8]: completely blocked | primary tumor development [2, 8]: completely blocked
